pIC50, pKi: −log10 of the molar value.
How the values were obtained:
[1] = target: T1, Angiotensin-converting enzyme (Oryctolagus cuniculus, UniProt P12822); test: Inhibition of rabbit lung somatic ACE using FAPGG substrate
T1 sequence (P12822 whole entry): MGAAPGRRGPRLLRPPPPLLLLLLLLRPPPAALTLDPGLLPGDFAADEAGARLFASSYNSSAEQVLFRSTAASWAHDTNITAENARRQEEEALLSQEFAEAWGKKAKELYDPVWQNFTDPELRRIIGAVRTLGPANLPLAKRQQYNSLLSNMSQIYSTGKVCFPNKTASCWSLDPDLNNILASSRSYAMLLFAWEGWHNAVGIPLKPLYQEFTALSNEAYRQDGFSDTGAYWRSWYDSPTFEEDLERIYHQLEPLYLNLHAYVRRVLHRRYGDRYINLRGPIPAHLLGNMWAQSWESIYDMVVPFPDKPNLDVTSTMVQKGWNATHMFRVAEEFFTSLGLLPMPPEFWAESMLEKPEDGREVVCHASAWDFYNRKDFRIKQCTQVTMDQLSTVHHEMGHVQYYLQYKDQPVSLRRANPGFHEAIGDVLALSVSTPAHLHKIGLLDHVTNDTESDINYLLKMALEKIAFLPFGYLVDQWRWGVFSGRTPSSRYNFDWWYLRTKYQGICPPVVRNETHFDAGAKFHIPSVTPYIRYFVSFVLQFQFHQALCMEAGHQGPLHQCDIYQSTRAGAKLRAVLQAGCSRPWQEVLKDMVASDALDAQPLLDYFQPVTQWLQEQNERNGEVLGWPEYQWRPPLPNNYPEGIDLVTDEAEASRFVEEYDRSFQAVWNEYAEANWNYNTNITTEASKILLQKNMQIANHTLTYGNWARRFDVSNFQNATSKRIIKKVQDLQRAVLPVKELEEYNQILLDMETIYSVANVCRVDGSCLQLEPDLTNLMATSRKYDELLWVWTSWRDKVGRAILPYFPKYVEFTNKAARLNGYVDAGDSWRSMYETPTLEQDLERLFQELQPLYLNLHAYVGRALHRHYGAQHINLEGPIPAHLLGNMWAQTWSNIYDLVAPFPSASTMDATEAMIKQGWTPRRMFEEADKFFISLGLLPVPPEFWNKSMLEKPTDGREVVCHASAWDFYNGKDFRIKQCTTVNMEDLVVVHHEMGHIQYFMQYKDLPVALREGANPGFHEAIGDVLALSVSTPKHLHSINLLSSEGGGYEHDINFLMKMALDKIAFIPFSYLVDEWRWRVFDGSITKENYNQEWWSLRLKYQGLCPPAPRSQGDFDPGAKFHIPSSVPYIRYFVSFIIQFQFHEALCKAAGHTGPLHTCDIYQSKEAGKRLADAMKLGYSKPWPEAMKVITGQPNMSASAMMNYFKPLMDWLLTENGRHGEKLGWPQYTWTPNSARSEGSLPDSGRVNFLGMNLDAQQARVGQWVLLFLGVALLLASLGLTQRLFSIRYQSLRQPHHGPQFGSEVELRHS

[2] = target: T2, Angiotensin-converting enzyme (Homo sapiens, UniProt P12821); test: Inhibition of human ACE C-terminal domain using Cbz-Phe-His-Leu-OH substrate
[3] = target: T2, Angiotensin-converting enzyme; test: Inhibition of human ACE N-terminal domain using Cbz-Phe-His-Leu-OH substrate
[4] = target: T3, Dipeptidyl carboxypeptidase (Escherichia coli (strain K12), UniProt P24171); test: Inhibition of Escherichia coli dipeptidyl carboxypeptidase assessed as FAPGG substrate hydrolysis
T3 sequence (P24171 whole entry): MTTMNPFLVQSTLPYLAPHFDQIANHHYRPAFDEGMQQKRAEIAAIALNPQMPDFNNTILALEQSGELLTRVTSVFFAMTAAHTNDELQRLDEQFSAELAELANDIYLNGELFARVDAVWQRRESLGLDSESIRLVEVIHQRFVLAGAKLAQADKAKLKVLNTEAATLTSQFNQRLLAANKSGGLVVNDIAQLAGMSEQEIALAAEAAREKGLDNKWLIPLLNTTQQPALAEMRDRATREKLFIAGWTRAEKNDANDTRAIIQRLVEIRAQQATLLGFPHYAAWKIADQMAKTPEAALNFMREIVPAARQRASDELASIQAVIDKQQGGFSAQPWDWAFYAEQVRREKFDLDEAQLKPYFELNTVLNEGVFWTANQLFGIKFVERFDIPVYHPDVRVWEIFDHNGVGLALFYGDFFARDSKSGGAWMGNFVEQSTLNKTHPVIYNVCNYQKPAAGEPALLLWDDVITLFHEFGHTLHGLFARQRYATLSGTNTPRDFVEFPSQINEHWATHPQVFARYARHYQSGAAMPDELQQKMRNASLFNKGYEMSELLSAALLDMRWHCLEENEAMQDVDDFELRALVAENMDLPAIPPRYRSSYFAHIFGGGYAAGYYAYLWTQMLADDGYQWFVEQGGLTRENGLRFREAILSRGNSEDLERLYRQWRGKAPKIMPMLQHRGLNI

[5] = Inhibition of Schwanella oneidensis dipeptidyl carboxypeptidase assessed as FAPGG substrate hydrolysis
[6] = Inhibition of Astrosporangium hypotensionis dicarboxypeptidase assessed as FAPGG substrate hydrolysis
[7] = target: T2, Angiotensin-converting enzyme; test: Inhibition of ACE (unknown origin)

T2 sequence (P12821 whole entry, the tested form may be a part): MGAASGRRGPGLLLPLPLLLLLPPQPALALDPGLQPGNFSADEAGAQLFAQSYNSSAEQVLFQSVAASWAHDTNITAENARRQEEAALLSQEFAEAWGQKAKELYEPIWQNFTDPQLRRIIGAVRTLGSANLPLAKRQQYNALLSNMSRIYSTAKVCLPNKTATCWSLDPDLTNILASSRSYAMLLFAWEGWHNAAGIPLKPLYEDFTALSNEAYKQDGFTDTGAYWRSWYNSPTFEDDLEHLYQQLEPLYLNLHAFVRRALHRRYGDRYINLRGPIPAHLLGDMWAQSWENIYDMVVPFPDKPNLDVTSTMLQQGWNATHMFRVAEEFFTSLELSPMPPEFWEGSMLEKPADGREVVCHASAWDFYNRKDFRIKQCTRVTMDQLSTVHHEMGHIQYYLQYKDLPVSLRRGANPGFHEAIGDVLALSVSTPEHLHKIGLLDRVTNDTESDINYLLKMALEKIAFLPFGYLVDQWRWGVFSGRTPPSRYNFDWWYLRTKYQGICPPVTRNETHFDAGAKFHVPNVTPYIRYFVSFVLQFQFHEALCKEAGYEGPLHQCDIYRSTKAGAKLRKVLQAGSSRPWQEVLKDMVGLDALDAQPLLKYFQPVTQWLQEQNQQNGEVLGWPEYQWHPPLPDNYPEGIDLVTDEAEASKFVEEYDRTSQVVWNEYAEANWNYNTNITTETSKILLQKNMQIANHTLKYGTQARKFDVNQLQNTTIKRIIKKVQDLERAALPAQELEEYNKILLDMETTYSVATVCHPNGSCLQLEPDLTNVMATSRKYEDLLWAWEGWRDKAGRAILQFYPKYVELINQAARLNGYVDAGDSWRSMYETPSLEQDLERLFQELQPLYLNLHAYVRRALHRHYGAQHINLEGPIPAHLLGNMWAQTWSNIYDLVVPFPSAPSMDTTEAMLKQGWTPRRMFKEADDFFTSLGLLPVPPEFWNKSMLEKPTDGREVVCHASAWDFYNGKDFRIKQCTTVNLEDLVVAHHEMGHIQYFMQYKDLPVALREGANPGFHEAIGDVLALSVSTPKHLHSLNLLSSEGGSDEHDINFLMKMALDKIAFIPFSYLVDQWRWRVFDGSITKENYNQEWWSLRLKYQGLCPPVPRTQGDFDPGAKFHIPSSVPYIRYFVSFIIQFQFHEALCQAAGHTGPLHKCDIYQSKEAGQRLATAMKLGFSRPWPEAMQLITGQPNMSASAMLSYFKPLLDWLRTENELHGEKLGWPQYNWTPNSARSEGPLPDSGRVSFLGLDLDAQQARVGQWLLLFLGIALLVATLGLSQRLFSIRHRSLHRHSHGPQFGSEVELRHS

SMILES	pIC50 [1]	pIC50 [2]	pIC50 [3]	other results
CN[C@H](C(=O)N[C@@H](Cc1ccccc1)C(=O)N[C@@H](Cc1ccc(O)cc1)P(=O)(O)O)C(C)C	6.43	6.23	6.66	
CC[C@H](C)[C@H](NC(C)=O)C(=O)N[C@@H](Cc1ccc(O)cc1)C(=O)N[C@@H](Cc1ccc(O)cc1)P(=O)(O)O	7.60	7.96	6.96	pIC50 [4]: 3.82; pKi [2]: 7.96; pKi [3]: 7.12; pIC50 [5]: 4.96; pIC50 [6]: 4.40
CN[C@H](C(=O)N[C@@H](Cc1ccc(O)cc1)C(=O)N[C@@H](Cc1ccc(O)cc1)P(=O)(O)O)C(C)C	6.85	7.27	7.28	
N[C@@H](Cc1ccc(O)cc1)P(=O)(O)O				pIC50 [7]: < 6.00

More lines, main results first:

pIC50 [1]	pIC50 [2]	pIC50 [3]	SMILES	other results
5.28			CC[C@H](C)[C@H](NC(C)=O)C(=O)N[C@@H](CCC(=O)O)C(=O)N[C@@H](Cc1ccc(O)cc1)P(=O)(O)O	
7.46			CC[C@H](C)[C@H](NC(C)=O)C(=O)N[C@@H](Cc1ccccc1)C(=O)N[C@@H](Cc1ccc(O)cc1)P(=O)(O)O	
7.00	7.92	7.12	CC[C@H](C)[C@H](NC(C)=O)C(=O)N[C@@H](CC(C)C)C(=O)N[C@@H](Cc1ccc(O)cc1)P(=O)(O)O	pKi [2]: 7.68; pKi [3]: 7.48

Reference: ChEMBL document CHEMBL3259630, “Interkingdom pharmacology of Angiotensin-I converting enzyme inhibitor phosphonates produced by actinomycetes” (ACS Med Chem Lett, 2014)
